Data: US9408803B2, “Compositions containing lignan-class compounds” (SUNTORY HOLDINGS LIMITED, priority 2006, dated 2016)

How the values were obtained:
[1] = system: β-oxidation enzymes in the liver; details: as compared with sesamin; cited from earlier work
[2] = set-up: species or system rats; details: rat, in vivo
Source text: It may well be said that a preferred mode of ingesting sesamin and/or episesamin is by dissolving them in fat or oil; however, sesamin and/or episesamin is only slightly soluble and has such low solubility in fat or oil (wheat germ oil) that not only is it difficult to incorporate them at high concentrations but, at the same time, even if they are incorporated at low concentrations, a crystal may precipitate during storage on account of their low storage stability. This crystal precipitation can potentially result in lowered absorbability, so considering the storage stability, there has been no alternative to incorporating them at concentrations considerably lower than their solubility in fat or oil (wheat germ oil). Under these circumstances, when one made an attempt to increase the dose of sesamin and/or episesamin that could be ingested at a time, the amount of the solvent fat or oil also had to be increased, inevitably resulting in an excessive calorie intake. In addition, the volume of the sesamin and/or episesamin containing composition that is prescribed becomes so large per unit dosage or their quantities to be ingested become so large that inconveniences in ingestion have occasionally occurred. […]

[3] = Solubility test in fats or oils (crystal formation after standing overnight at room temperature); assay type: physicochemical
Source text: Three samples were used and they included not only a mixture of sesamin and episesamin (sesamin:episesamin=51.1:48.2) but also sesamin and episesamin that were individually purified from the mixture. The wheat germ oil was a product of RIKEN VITAMIN CO., LTD.; the olive oil was a product of nakalai tesque; used as middle-chain fatty acids (MCTs) were ACTOR M-1 (a triglyceride of middle-chain fatty acid with C8:C10:C12=56:42:2) and ACTOR M-2 (a triglyceride of C8 middle-chain fatty acid), both being products of RIKEN VITAMIN CO., LTD. The diacylglycerol was a commercial fat or oil (Econa Cooking Oil of KAO CORPORATION, an edible oil containing about 80% diacylglycerol).
Into test tubes, there were weighed 2 g of the respective fats or oils and various concentrations of the samples that increased from 0.5 to 10% (by weight) by an increment of 0.25%. Then, the test tubes were heated to 120° C. so that sesamin completely dissolved in the fats or oils. Thereafter, the test tubes were allowed to stand overnight at room temperature to examine whether crystals would be formed or not.

| Compound | gene expression and enzymatic activity of β-oxidation enzymes in the liver [1] | bodily absorption, solution in fat or oil vs suspension in water [2] | factor of solubility improvement over wheat germ oil [3] |
| --- | --- | --- | --- |
| c1cc2c(cc1[C@H]1OC[C@H]3[C@@H]1CO[C@@H]3c1ccc3c(c1)OCO3)OCO2 [Episesamin, episesamin] | markedly increasing | significantly superior in bodily absorption | 2.5-5.5 |
| c1cc2c(cc1[C@H]1OC[C@H]3[C@@H]1CO[C@@H]3c1ccc3c(c1)OCO3)OCO2 [Sesamin, sesamin] | – | significantly superior in bodily absorption | 2.5-5.5 |
